{
  "source": "patent US20030104079A1",
  "about": "“Skin tissue regeneration promoters comprising ginsenoside Rb1” (Japan Science and Technology Corporation, Japan, priority 2000, published 2003)",
  "key": {"[1]": {"test_system": "skin fibroblast", "details": "extracellular concentration 10 μg/ml; cited from earlier work"}, "[2]": {"test_system": "open wound of skin", "assay": "Open wound (skin defect) healing by intravenous infusion after punch biopsy", "type": "in vivo, Wistar rats", "details": "vs physiological saline", "description": "We have examined whether intravenous administration of ginsenoside Rb1 at low dosages or low doses can promote regeneration and/or reconstruction of skin tissue in diseases with defect of skin tissue (bedsore, skin ulcer, burn, frostbite, radiation injury, open wound, ultraviolet injury, electric injury, etc.). For that purpose, for example, by using male Wistar rats (body weight about 300 g), punch biopsy with diameter 6 mm was performed in the dorsal skin region of animals under inhalation anesthesia to prepare open wound, and the animals were allowed to leave as they were. About 1 hour later, ginsenoside Rb1 (12 μg) dissolved in physiological saline was once administered intravenously, then ginsenoside Rb1 was continuously infused intravenously for 7 days by using an Alza osmotic minipump (12 μg/day).\nAn equal amount of physiological saline was administered intravenously in the control animals, for which the same open wound was made to leave the animals as they were.\nOn day 2 after finishing continuous intravenous administration of ginsenoside Rb1 or physiological saline, the animals were anesthetized with pentobarbital and fixed transcardialy with perfusion of 0.1 M phosphate buffer containing 4% paraformaldehyde. Thereafter, the skin tissue including the open wound was dissected out, post-fixed and embedded in paraffin. […]"}},
  "data": [
    {"smiles": "CC(C)=CCC[C@](C)(O[C@@H]1O[C@H](CO[C@@H]2O[C@H](CO)[C@@H](O)[C@H](O)[C@H]2O)[C@@H](O)[C@H](O)[C@H]1O)[C@H]1CC[C@]2(C)[C@@H]1[C@H](O)C[C@@H]1[C@@]3(C)CC[C@H](O[C@@H]4O[C@H](CO)[C@@H](O)[C@H](O)[C@H]4O[C@@H]4O[C@H](CO)[C@@H](O)[C@H](O)[C@H]4O)C(C)(C)[C@@H]3CC[C@]12C", "note": "[ginsenoside Rb1]", "values": [
      {"measurement": "production of elastin", "setting": "[1]", "result": "can promote production of elastin in the skin fibroblast"},
      {"measurement": "scar or granulation formation in open wound (HE histology, FIG. 2)", "setting": "[2]; 12 μg once then 12 μg/day continuous iv for 7 days after 6 mm punch biopsy", "result": "scar or granulation formation was obviously little"},
      {"measurement": "epithelization of open wound (FIG. 2)", "setting": "[2]; 12 μg/day continuous iv for 7 days after 6 mm punch biopsy", "result": "sufficient epithelization occurred"}
    ]}
  ]
}
